Assay results: paper PMC6364417, “Kinase inhibitor library screening identifies synergistic drug combinations effective in sensitive and resistant melanoma cells” (Journal of Experimental & Clinical Cancer Research : CR, 2019)

Tests used:
Test in all cases: Kinase inhibitor library screening, PrestoBlue cell viability, 1 or 10 μM, 72 h
501Mel cells (parental) = conditions: 501Mel Parental, 72 h
Procedure, shortened: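 Parental cells and Vemurafenib-resistant (XP) or Dabrafenib-resistant (GP) derivatives were treated with library kinase inhibitors at 1 and 10 μM for 72 h. Viability measured by PrestoBlue and expressed as % of untreated cells, at least in duplicate.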

[1] = system: 501Mel-GP cells (Dabrafenib-resistant); conditions: 501Mel GP, 72 h
[2] = system: 501Mel-XP cells (Vemurafenib-resistant); conditions: 501Mel XP, 72 h
A375 cells (parental) = conditions: A375 Parental, 72 h
[3] = system: A375-GP cells (Dabrafenib-resistant); conditions: A375 GP, 72 h
[4] = system: A375-XP cells (Vemurafenib-resistant); conditions: A375 XP, 72 h
IGR37 cells (parental) = conditions: IGR37 Parental, 72 h
[5] = system: IGR37-GP cells (Dabrafenib-resistant); conditions: IGR37 GP, 72 h
[6] = system: IGR37-XP cells (Vemurafenib-resistant); conditions: IGR37 XP, 72 h

| Structure (SMILES) | cell viability (kinase inhibitor library screening) (501Mel cells (parental); 1μΜ) | cell viability (kinase inhibitor library screening) (501Mel cells (parental); 10μΜ) | cell viability (kinase inhibitor library screening) ([1]; 1μΜ) | cell viability (kinase inhibitor library screening) ([1]; 10μΜ) | cell viability (kinase inhibitor library screening) ([2]; 1μΜ) | cell viability (kinase inhibitor library screening) ([2]; 10μΜ) | cell viability (kinase inhibitor library screening) (A375 cells (parental); 10μΜ) | cell viability (kinase inhibitor library screening) (A375 cells (parental); 1μΜ) | cell viability (kinase inhibitor library screening) ([3]; 1μΜ) | cell viability (kinase inhibitor library screening) ([3]; 10μΜ) | cell viability (kinase inhibitor library screening) ([4]; 1μΜ) | cell viability (kinase inhibitor library screening) ([4]; 10μΜ) | cell viability (kinase inhibitor library screening) (IGR37 cells (parental); 1μΜ) | cell viability (kinase inhibitor library screening) ([5]; 10μΜ) | cell viability (kinase inhibitor library screening) ([6]; 1μΜ) | cell viability (kinase inhibitor library screening) ([6]; 10μΜ) | cell viability (kinase inhibitor library screening) (IGR37 cells (parental); 10μΜ) | cell viability (kinase inhibitor library screening) ([5]; 1μΜ) | other results |
| --- | --- | --- | --- | --- | --- | --- | --- | --- | --- | --- | --- | --- | --- | --- | --- | --- | --- | --- | --- |
| CC(=O)c1c(C)c2cnc(Nc3ccc(N4CCNCC4)cn3)nc2n(C2CCCC2)c1=O.Cl [PD 0332991 (Palbociclib) HCl] | 89.7% | 80.1% | 83.8% | 66.3% | 76.9% | 25.1% | 59.1% | 78.9% | 77.9% | 57.2% | 74.5% | 63.1% | 96.5% | 78.0% | 98.1% | 28.9% |  |  |  |
| CN(c1ncccc1CNc1nc(Nc2ccc3c(c2)CC(=O)N3)ncc1C(F)(F)F)S(C)(=O)=O [PF-00562271] |  |  |  |  |  |  |  |  |  |  |  |  |  |  |  |  |  |  | cell viability, 501Mel Parental, 10μΜ (501Mel cells (parental); 10μΜ, in %): 1.5; cell viability, 501Mel GP, 1μΜ ([1]; 1μΜ, in %): 98.0; cell viability, 501Mel GP, 10μΜ ([1]; 10μΜ, in %): 0.9; cell viability, 501Mel XP, 1μΜ ([2]; 1μΜ, in %): 94.1; cell viability, 501Mel XP, 10μΜ ([2]; 10μΜ, in %): 0.458; cell viability, A375 Parental, 1μΜ (A375 cells (parental); 1μΜ, in %): 104.9; cell viability, A375 Parental, 10μΜ (A375 cells (parental); 10μΜ, in %): 4.0; cell viability, A375 GP, 1μΜ ([3]; 1μΜ, in %): 92.2; cell viability, A375 GP, 10μΜ ([3]; 10μΜ, in %): 4.9; cell viability, A375 XP, 1μΜ ([4]; 1μΜ, in %): 107.5; cell viability, A375 XP, 10μΜ ([4]; 10μΜ, in %): 3.4; cell viability, IGR37 Parental, 1μΜ (IGR37 cells (parental); 1μΜ, in %): 103.3; cell viability, IGR37 Parental, 10μΜ (IGR37 cells (parental); 10μΜ, in %): 3.6; cell viability, IGR37 GP, 10μΜ ([5]; 10μΜ): 2.9%; cell viability, IGR37 XP, 10μΜ ([6]; 10μΜ): 1.9%; cell viability, IGR37 XP, 1μΜ ([6]; 1μΜ, in %): 82.7 |
| CC(=O)NCC(=O)N1[C@@H]2CC[C@H]1c1ccc(Nc3ncc(C(F)(F)F)c(NC4CCC4)n3)cc12 [PF-03814735] | 82.8% | 24.0% | 89.2% | 8.3% | 72.2% | 3.8% | 8.5% | 32.3% | 35.1% | 3.7% | 40.9% | 12.4% | 88.9% | 10.4% | 69.3% | 2.0% | 37.6% | 91.2% |  |
| CN(C)C1CCN(C(=O)c2ccc(NC(=O)Nc3ccc(-c4nc(N5CCOCC5)nc(N5CCOCC5)n4)cc3)cc2)CC1 [PF-05212384 (PKI-587)] |  |  |  |  |  |  |  |  |  |  |  |  |  |  |  |  |  |  | Cell viability in kinase inhibitor library screening, 501Mel Parental, 1μΜ (501Mel cells (parental); 1μΜ, in %): 22.6; Cell viability in kinase inhibitor library screening, 501Mel Parental, 10μΜ (501Mel cells (parental); 10μΜ, in %): 1.3; Cell viability in kinase inhibitor library screening, 501Mel GP, 1μΜ ([1]; 1μΜ, in %): 29.3; Cell viability in kinase inhibitor library screening, 501Mel GP, 10μΜ ([1]; 10μΜ, in %): 2.2; Cell viability in kinase inhibitor library screening, 501Mel XP, 1μΜ ([2]; 1μΜ, in %): 53.1; Cell viability in kinase inhibitor library screening, 501Mel XP, 10μΜ ([2]; 10μΜ, in %): 0.9; Cell viability in kinase inhibitor library screening, A375 Parental, 10μΜ (A375 cells (parental); 10μΜ): 13.9; Cell viability in kinase inhibitor library screening, A375 Parental, 1μΜ (A375 cells (parental); 1μΜ): 35.9; Cell viability in kinase inhibitor library screening, A375 GP, 1μΜ ([3]; 1μΜ): 34.6; Cell viability in kinase inhibitor library screening, A375 GP, 10μΜ ([3]; 10μΜ): 13.9; Cell viability in kinase inhibitor library screening, A375 XP, 1μΜ ([4]; 1μΜ): 33.4; Cell viability in kinase inhibitor library screening, A375 XP, 10μΜ ([4]; 10μΜ): 11.6; Cell viability in kinase inhibitor library screening, IGR37 Parental, 1μΜ (IGR37 cells (parental); 1μΜ, in %): 35.0; Cell viability in kinase inhibitor library screening, IGR37 Parental, 10μΜ (IGR37 cells (parental); 10μΜ, in %): 14.2; Cell viability in kinase inhibitor library screening, IGR37 GP, 10μΜ ([5]; 10μΜ): 6.8%; Cell viability in kinase inhibitor library screening, IGR37 GP, 1μΜ ([5]; 1μΜ, in %): 39.4; Cell viability in kinase inhibitor library screening, IGR37 XP, 10μΜ ([6]; 10μΜ): 3%; Cell viability in kinase inhibitor library screening, IGR37 XP, 1μΜ ([6]; 1μΜ, in %): 33.0 |
| Cc1[nH]c(/C=C2\C(=O)Nc3ccc(S(=O)(=O)Cc4c(Cl)cccc4Cl)cc32)c(C)c1C(=O)N1CCC[C@@H]1CN1CCCC1 [PHA-665752] | 100.2% | 0.232% | 86.9% | -0.7% | 70.6% | -0.7% | 1.9% | 98.9% | 96.1% | 0.5% | 99.9% | 0.9% | 99.2% | 0.8% |  | 0.9% | 0.24% | 98.8% |  |
| CCc1cccc(CC)c1NC(=O)N1Cc2n[nH]c(NC(=O)c3ccc(N4CCN(C)CC4)cc3)c2C1 [PHA-680632] | 104.0% | 95.7% | 105.0% | 79.1% | 96.6% | 75.1% | 37.5% | 85.1% | 81.0% | 37.4% | 93.5% | 51.3% | 93.9% | 78.7% | 96.4% | 40.2% | 73.1% | 92.2% |  |
| CNC(=O)c1nn(C)c2c1C(C)(C)Cc1cnc(Nc3ccc(N4CCN(C)CC4)cc3)nc1-2 [PHA-848125] | 75.4% | 14.7% | 63.8% | 28.1% | 75.1% | 14.5% | 5.7% | 56.7% | 57.9% | 4.3% | 66.4% | 7.5% | 95.1% | 66.9% | 75.2% | 31.7% | 70.2% | 78.8% |  |
